Assay results taken from PubChem BioAssay (NCI).
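Tested at 5 concentrations; 48 h exposure; 96-well plates; endpoints linearly interpolated, else capped at highest concentration. GI50 marks 50% less growth. The concentration for full growth arrest is given as TGI.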

Columns and labels:
Test in all cases: growth of human tumour cells (NCI), 48 h; in the data active = GI50 below about 0.43 µM; inactive = the rest
[1] = tested on: M14 melanoma
[2] = tested on: MDA-MB-435
[3] = tested on: K-562 leukemia
[4] = tested on: HT29 colon
[5] = tested on: SK-MEL-5 melanoma
[6] = tested on: SK-MEL-28 melanoma
[7] = tested on: NCI/ADR-RES ovarian
[8] = tested on: SW-620 colon
[9] = tested on: A498 renal
[10] = tested on: OVCAR-5 ovarian
[11] = tested on: UACC-257 melanoma
[12] = tested on: MOLT-4 leukemia
[13] = tested on: U251 CNS
[14] = tested on: DU-145 prostate
[15] = tested on: SNB-75 CNS
[16] = tested on: HCT-15 colon
[17] = tested on: MDA-N
[18] = tested on: SK-MEL-2 melanoma
[19] = tested on: SN12C renal
[20] = tested on: A549 NSCLC
[21] = tested on: HS 578T breast
[22] = tested on: SNB-19 CNS
[23] = tested on: MDA-MB-231 breast
[24] = tested on: NCI-H23 lung
[25] = tested on: HCT-116 colon
[26] = tested on: SF-295 CNS
[27] = tested on: LOX IMVI melanoma
[28] = tested on: PC-3 prostate
[29] = tested on: COLO 205 colon
[30] = tested on: NCI-H460 lung
[31] = tested on: RPMI-8226 leukemia
[32] = tested on: UO-31 renal
[33] = tested on: IGROV1 ovarian
[34] = tested on: ACHN renal
[35] = tested on: SK-OV-3 ovarian
[36] = tested on: HOP-62 NSCLC
[37] = tested on: MCF7 breast
[38] = tested on: OVCAR-3 ovarian
[39] = tested on: TK-10 renal
[40] = tested on: OVCAR-8 ovarian
[41] = tested on: OVCAR-4 ovarian
[42] = tested on: T-47D breast
[43] = tested on: NCI-H226 lung
[44] = tested on: NCI-H522 lung
[45] = tested on: HCC-2998 colon
[46] = tested on: CAKI-1 renal
[47] = tested on: SF-268 CNS
[48] = tested on: 786-0 renal
[49] = tested on: SF-539 CNS
[50] = tested on: SR leukemia
[51] = tested on: KM12 colon
[52] = tested on: HOP-92 NSCLC
[53] = tested on: BT-549 breast
[54] = tested on: UACC-62 melanoma
[55] = tested on: CCRF-CEM leukemia
[56] = tested on: EKVX NSCLC
[57] = tested on: HL-60(TB) leukemia

COP(=O)(OC)C(N)Cc1c[nH]c2ccccc12 (stereo not given)
> 100000 nM: TGI [1] | TGI [2] | TGI [3] | TGI [4] | TGI [5] | TGI [6] | TGI [7] | TGI [8] | TGI [9] | TGI [10] | TGI [11] | TGI [12] | TGI [13] | TGI [14] | TGI [15] | TGI [16] | TGI [17] | TGI [18] | TGI [19] | TGI [20] | TGI [21] | TGI [22] | TGI [23] | TGI [24] | TGI [25] | TGI [26] | TGI [27] | TGI [28] | TGI [29] | TGI [30] | TGI [31] | TGI [32] | TGI [33] | TGI [34] | TGI [35] | TGI [36] | TGI [37] | TGI [38] | TGI [39] | TGI [40] | TGI [41] | TGI [42] | TGI [43] | TGI [44] | TGI [45] | TGI [46]

COc1ccc(Cn2cc3c(c2-c2ccccc2)CCc2cnoc2-3)cc1
active: GI50 [1] 155 nM | GI50 [2] 31.1 nM | GI50 [48] 243 nM | GI50 [49] 149 nM | GI50 [50] 57.4 nM | GI50 [3] 40.4 nM | GI50 [51] 103 nM | GI50 [4] 79.7 nM | GI50 [5] 47.9 nM | GI50 [7] 46.2 nM | GI50 [8] 113 nM | GI50 [9] 209 nM | GI50 [12] 361 nM | GI50 [13] 264 nM | GI50 [14] 359 nM | GI50 [15] 165 nM | GI50 [16] 127 nM | GI50 [20] 293 nM | GI50 [21] 183 nM | GI50 [22] 351 nM | GI50 [23] 370 nM | GI50 [24] 234 nM | GI50 [25] 90.4 nM | GI50 [26] 65.2 nM | GI50 [27] 380 nM | GI50 [28] 96 nM | GI50 [29] 125 nM | GI50 [30] 250 nM | GI50 [31] 167 nM | GI50 [33] 114 nM | GI50 [53] 389 nM | GI50 [34] 215 nM | GI50 [35] 226 nM | GI50 [54] 46.1 nM | GI50 [36] 279 nM | GI50 [55] 251 nM | GI50 [37] 39.1 nM | GI50 [38] 137 nM | GI50 [40] 416 nM | GI50 [56] 425 nM | GI50 [44] 32.7 nM | GI50 [45] 209 nM | GI50 [46] 88.3 nM | GI50 [57] 133 nM
4380 nM: TGI [12]
> 48500 nM: TGI [36]
504 nM: TGI [5]
2970 nM: TGI [51]
11900 nM: TGI [7]
2120 nM: TGI [30]
> 95500 nM: TGI [9]
inactive: GI50 [47] 488 nM | GI50 [6] 33900 nM | GI50 [10] 505 nM | GI50 [11] 27400 nM | GI50 [18] 2790 nM | GI50 [19] 545 nM | GI50 [52] 3310 nM | GI50 [32] 677 nM | GI50 [39] > 34500 nM | GI50 [41] 470 nM | GI50 [42] 1320 nM | GI50 [43] 476 nM
490 nM: TGI [49]
3160 nM: TGI [50]
1580 nM: TGI [4]
1150 nM: TGI [44]
501 nM: TGI [31]
509 nM: TGI [38]
389 nM: TGI [57]
2570 nM: TGI [14]
905 nM: TGI [45]
394 nM: TGI [29]
> 100000 nM: TGI [1] | TGI [2] | TGI [47] | TGI [3] | TGI [6] | TGI [8] | TGI [10] | TGI [11] | TGI [13] | TGI [15] | TGI [16] | TGI [18] | TGI [19] | TGI [20] | TGI [22] | TGI [23] | TGI [52] | TGI [24] | TGI [26] | TGI [27] | TGI [28] | TGI [32] | TGI [33] | TGI [53] | TGI [34] | TGI [35] | TGI [54] | TGI [55] | TGI [37] | TGI [39] | TGI [40] | TGI [41] | TGI [42] | TGI [56] | TGI [43] | TGI [46]
